In brackets after ≈: the same amount, converted by molar mass.
These compounds were tested on S. aureus 29213 (assay: Bacterial growth minimal inhibitory concentrations (microdilution in cation-adjusted Mueller-Hinton Broth, CLSI M7-A7)). Conditions: Staphylococcus aureus, 29213, microdilution method.
Assay type: cell-based
Procedure: Bacterial Growth Minimal Inhibitory Concentrations: Minimal inhibitory concentrations (MICs; mg/l) were determined in cation-adjusted Mueller-Hinton Broth by a microdilution method following the description given in “Methods for Dilution Antimicrobial Susceptibility Tests for Bacteria that Grow Aerobically”, Approved standard, 7th ed., Clinical and Laboratory Standards Institute (CLSI) Document M7-A7, Wayne, Pa., USA, 2006. All Example compounds were tested against several Gram positive and Gram negative bacteria.

Row | SMILES | MIC [µg/mL]
1 | COc1ccc2ncc(F)c([C@@H](O)CN3CC[C@@H]4CN(c5ccc6c(c5)OCCO6)C(=O)O[C@H]4C3)c2n1 (mixture of isomers) [Example 13, (4aR*,8aR*)-3-(2,3-dihydro-benzo[1,4]dioxin-6-yl)-7-[(R)-2-(3-fluoro-6-methoxy-[1,5]naphthyridin-4-yl)-2-hydroxy-ethyl]-octahydro-pyrido[4,3-e][1,3]oxazin-2-one] | 0.063
2 | COc1ccc2nccc(C(O)CN3CC[C@@H]4CN(c5ccc6c(c5)OCCO6)C(=O)O[C@H]4C3)c2n1 (mixture of isomers) [Example 3, (4aR*,8aR*)-3-(2,3-dihydro-benzo[1,4]dioxin-6-yl)-7-[(2RS)-2-hydroxy-2-(6-methoxy-[1,5]naphthyridin-4-yl)-ethyl]-octahydro-pyrido[4,3-e][1,3]oxazin-2-one] | 0.125 (≈ 0.254 µM)
3 | COc1ccc2nccc(CCN3CC[C@@H]4CN(c5ccc6c(c5)OCCO6)C(=O)O[C@H]4C3)c2n1 (racemic) [Example 4, rac-(4aR*,8aR*)-3-(2,3-dihydro-benzo[1,4]dioxin-6-yl)-7-[2-(6-methoxy-[1,5]naphthyridin-4-yl)-ethyl]-octahydro-pyrido[4,3-e][1,3]oxazin-2-one] | 0.063 (≈ 0.132 µM)
4 | COc1ccc2ncc(F)c(CCN3CC[C@@H]4CN(c5ccc6c(c5)NC(=O)CO6)C(=O)O[C@H]4C3)c2n1 (racemic) [Example 5, rac-(4aR*,8aR*)-7-[2-(3-fluoro-6-methoxy-[1,5]naphthyridin-4-yl)-ethyl]3-(3-oxo-3,4-dihydro-2H-benzo[1,4]oxazin-6-yl)-octahydro-pyrido[4,3-e][1,3]oxazin-2-one] | ≤ 0.031
5 | COc1ccc2ncc(F)c(C(O)CN3CC[C@@H]4CN(c5ccc6c(c5)OCCO6)C(=O)O[C@H]4C3)c2n1 (mixture of isomers) [Example 6, (4aR*,8aR*)-3-(2,3-dihydro-benzo[1,4]dioxin-6-yl)-7-[(2RS)-2-(3-fluoro-6-methoxy-[1,5]naphthyridin-4-yl)-2-hydroxy-ethyl]-octahydro-pyrido[4,3-e][1,3]oxazin-2-one] | 0.063 (≈ 0.123 µM)
6 | COc1ccc2ncc(F)c(CCN3CC[C@@H]4CN(c5ccc6c(c5)NC(=O)CS6)C(=O)O[C@H]4C3)c2n1 (racemic) [Example 7, rac-(4aR*,8aR*)-7-[2-(3-fluoro-6-methoxy-[1,5]naphthyridin-4-yl)-ethyl]-3-(3-oxo-3,4-dihydro-2H-benzo[1,4]thiazin-6-yl)-octahydro-pyrido[4,3-e][1,3]oxazin-2-one] | ≤ 0.031
7 | COc1ccc2ccc(=O)n(CCN3CC[C@@H]4CN(c5ccc6c(c5)OCCO6)C(=O)O[C@H]4C3)c2c1 (racemic) [Example 8, rac-(4aR*,8aR*)-3-(2,3-dihydro-benzo[1,4]dioxin-6-yl)-7-[2-(7-methoxy-2-oxo-2H-quinolin-1-yl)-ethyl]-octahydro-pyrido[4,3-e][1,3]oxazin-2-one] | ≤ 0.031
8 | COc1ccc2ncc(=O)n(CCN3CC[C@@H]4CN(c5ccc6c(c5)OCCO6)C(=O)O[C@H]4C3)c2c1 (racemic) [Example 9, rac-(4aR*,8aR*)-3-(2,3-dihydro-benzo[1,4]dioxin-6-yl)-7-[2-(7-methoxy-2-oxo-2H-quinoxalin-1-yl)-ethyl]-octahydro-pyrido[4,3-e][1,3]oxazin-2-one] | ≤ 0.031
9 | COc1ccc2ccc(=O)n(CCN3CC[C@@H]4CN(c5ccc6c(c5)OCCO6)C(=O)O[C@H]4C3)c2n1 (racemic) [Example 10, rac-(4aR*,8aR*)-3-(2,3-dihydro-benzo[1,4]dioxin-6-yl)-7-[2-(7-methoxy-2-oxo-2H-[1,8]naphthyridin-1-yl)-ethyl]-octahydro-pyrido[4,3-e][1,3]oxazin-2-one] | ≤ 0.031
10 | COc1ccc2ncc(=O)n(CCN3CC[C@@H]4CN(c5ccc6c(c5)OCCO6)C(=O)O[C@H]4C3)c2n1 (racemic) [Example 11, rac-(4aR*,8aR*)-3-(2,3-dihydro-benzo[1,4]dioxin-6-yl)-7-[2-(6-methoxy-3-oxo-3H-pyrido[2,3-b]pyrazin-4-yl)-ethyl]-octahydro-pyrido[4,3-e][1,3]oxazin-2-one] | ≤ 0.031
11 | COc1cnc2ccc(=O)n(CCN3CC[C@@H]4CN(c5ccc6c(c5)OCCO6)C(=O)O[C@H]4C3)c2n1 (racemic) [Example 12, rac-(4aR*,8aR*)-3-(2,3-dihydro-benzo[1,4]dioxin-6-yl)-7-[2-(3-methoxy-6-oxo-6H-pyrido[2,3-b]pyrazin-5-yl)-ethyl]-octahydro-pyrido[4,3-e][1,3]oxazin-2-one] | ≤ 0.031
12 | COc1ccc2ccc(F)c(C(O)CN3CC[C@@H]4CN(c5ccc6c(c5)OCCO6)C(=O)O[C@H]4C3)c2n1 (mixture of isomers) [Example 16, (4aR*,8aR*)-3-(2,3-dihydro-benzo[1,4]dioxin-6-yl)-7-[(2RS)-2-(7-fluoro-2-methoxy-quinolin-8-yl)-2-hydroxy-ethyl]-octahydro-pyrido[4,3-e][1,3]oxazin-2-one] | 0.125 (≈ 0.245 µM)
13 | COc1cnc2ccc(F)c(C(O)CN3CC[C@@H]4CN(c5ccc6c(c5)OCCO6)C(=O)O[C@H]4C3)c2n1 (mixture of isomers) [Example 17, (4aR*,8aR*)-3-(2,3-dihydro-benzo[1,4]dioxin-6-yl)-7-[(2RS)-2-(6-fluoro-3-methoxy-quinoxalin-5-yl)-2-hydroxy-ethyl]-octahydro-pyrido[4,3-e][1,3]oxazin-2-one] | 0.063 (≈ 0.123 µM)
14 | COc1cnc2cccc(C(O)CN3CC[C@@H]4CN(c5ccc6c(c5)OCCO6)C(=O)O[C@H]4C3)c2n1 (mixture of isomers) [Example 18, (4aR*,8aR*)-3-(2,3-dihydro-benzo[1,4]dioxin-6-yl)-7-[(2RS)-2-hydroxy-2-(3-methoxy-quinoxalin-5-yl)-ethyl]-octahydro-pyrido[4,3-e][1,3]oxazin-2-one] | 0.063 (≈ 0.128 µM)
15 | COc1ccc2ncc(F)c(CCN3CC[C@@H]4CN(c5ccc6c(n5)NC(=O)CO6)C(=O)O[C@H]4C3)c2n1 (racemic) [Example 19, rac-(4aR*,8aR*)-7-[2-(3-fluoro-6-methoxy-[1,5]naphthyridin-4-yl)-ethyl]3-(3-oxo-3,4-dihydro-2H-pyrido[3,2-b][1,4]oxazin-6-yl)-octahydro-pyrido[4,3-e][1,3]oxazin-2-one] | ≤ 0.031
16 | COc1ccc2ncc(F)c(CCN3CC[C@@H]4CN(c5cnc6c(c5)OCCO6)C(=O)O[C@H]4C3)c2n1 (racemic) [Example 22, rac-(4aR*,8aR*)-3-(2,3-dihydro-[1,4]dioxino[2,3-b]pyridin-7-yl)-7-[2-(3-fluoro-6-methoxy-[1,5]naphthyridin-4-yl)-ethyl]-octahydro-pyrido[4,3-e][1,3]oxazin-2-one] | ≤ 0.031
17 | COc1ccc2ncc(F)c(CCN3CC[C@@H]4CN(c5cc6c(nn5)OCCO6)C(=O)O[C@H]4C3)c2n1 (racemic) [Example 23, rac-(4aR*,8aR*)-3-(6,7-dihydro-[1,4]dioxino[2,3-c]pyridazin-3-yl)-7-[2-(3-fluoro-6-methoxy-[1,5]naphthyridin-4-yl)-ethyl]-octahydro-pyrido[4,3-e][1,3]oxazin-2-one] | ≤ 0.031
18 | COc1ccc2ncc(F)c(CCN3CC[C@@H]4CN(c5cc6c(cn5)OCCO6)C(=O)O[C@H]4C3)c2n1 (racemic) [Example 24, rac-(4aR*,8aR*)-3-(2,3-dihydro-[1,4]dioxino[2,3-c]pyridin-7-yl)-7-[2-(3-fluoro-6-methoxy-[1,5]naphthyridin-4-yl)-ethyl]-octahydro-pyrido[4,3-e][1,3]oxazin-2-one] | ≤ 0.031

From patent publication US9029368B2, “3,7-disubstituted octahydro-2H-pyrido[4,3-E][1,3]oxazin-2-one antibiotics” (Actelion Pharmaceuticals Ltd., priority 2011, dated 2015)
